How the values were obtained:
[1] = tested on: Mayo Clinic patient derived GBM tumor cells; test: Mayo Clinic patient derived GBM tumor cell proliferation; assay type: cell-based; settings: 132 hours
Protocol: (§1) Short-term explant cultures from PDX models were seeded into 96-well Perfecta3D hanging drop plates to form a single spheroid in each well after 2 days. The spheroids were transferred to a round bottom 96 well plate by centrifugation and then incubated with graded concentrations of test compound (8 spheroids per compound concentration). Spheroid volumes were monitored every 6 hours over the course of 5 days using the IncuCyte system (Essen BioScience, MI, US) to provide a growth curve akin to a tumor regrowth assay.

[2] = tested on: Hsp90 client proteins (EGFR and Akt1) in Mayo Clinic GBM PDX cell lines; test: Cellular biomarker assays (EGFR, Akt1 ELISA) in Mayo Clinic GBM PDX cell lines; assay type: cell-based; settings: 48 hours; three cell lines
HEI193 cells = test: TMRE assay, HEI193 cell mitochondrial integrity; assay type: cell-based, human; settings: observed as early as 2 hours after treatment
Protocol: (§2) Mitochondrial integrity was evaluated using Tetramethylrhodamine ethyl ester (TMRE) assay. A TMRE assay kit (Abcam) was used to evaluate Hsp90/TRAP1 inhibitor-induced changes in mitochondrial membrane potential. […] TMRE (200 nM) was then added to wells for 30 min and monitored for changes in fluorescence activity using a fluorescence plate reader (ex544/em 590) after washing the cells. Specific TMRE fluorescence was calculated by comparison to matched wells pretreated with the depolarizing proton ionophore carbonyl cyanide 4-(trifluoromethoxy)phenylhydrazone (FCCP) at 20 uM 10 min prior to addition of TMRE. For mitochondria assays, mitochondria was isolated using a kit from Thermoscientific and loaded with 0.1 mM TMRE. TMRE-loaded mitochondria (2 μg per well) were incubated with test compounds and monitored kinetically at 30° C. for changes in fluorescence using a flurorescence plate reader (ex 544/em 590) (FIGS. 6A, 9A and 12).

MDA-MB-231 cells = test: TMRE assay, MDA-MB-231 cell mitochondrial integrity; assay type: cell-based; settings: 2 hours or 4 hours
Protocol: as §2

GBM10 = test: Cellular efficacy in Mayo Clinic GBM PDX cell line GBM10; assay type: cell-based
Protocol: as §1

[3] = tested on: caspase 3/7 activity in U251MG cells; test: Caspase activation assay (Caspase-3/7 luminescence); assay type: cell-based; settings: 48 h
Protocol: U251MG cells were seeded, maintained, and treated with test compounds as described above for 48 h at 37° C. Quantification of total cellular Caspase-3 and 7 activity was accomplished using a Caspase-3/7 luminescence assay kit (Promega) according to the manufacturer's recommendations and analyzed with a POLARstar Omega micro-titer plate reader (BMG).

[4] = tested on: mitochondria isolated from U251MG cells; test: TMRE assay, TMRE-loaded isolated mitochondria; assay type: cell-based; settings: 30° C.
Protocol: For cell-based assays, cells were treated with various concentrations of the test compounds for 48 hours at 37° C., with 5% CO2. TMRE (200 nM) was then added to wells for 30 min and monitored for changes in fluorescence activity either by fluorescence microscopy using an inverted Zeiss LSM 710 confocal microscope or by spectrophotometry using a fluorescence plate reader (544ex/590em) after washing the cells. Specific TMRE fluorescence was calculated by comparison to matched wells pretreated with 20 uM FCCP for 10 min prior to addition of TMRE. For mitochondria assays, untreated U251MG cells grown to confluence in T75 culture flasks. Mitochondria from these cells were isolated using a mitochondria isolation kit (Thermo Scientific) and loaded with 0.1 mM TMRE in kit buffer at 37° C. for 20 min. After washing, the TMRE-loaded mitochondria (2 ug per well) were incubated in a 96 well black plate with test compounds and monitored kinetically at 30° C. for changes in fluorescence using a fluorescence plate reader (ex 544/em 590). The fluorescence intensity after treatment with 20 um FCCP in control wells corresponded to a fully depolarized state.

[5] = tested on: EGFR levels in U251MG cells; test: Biomarker quantitation by ELISA, EGFR; assay type: cell-based; settings: 16 uM, 48 h
Protocol: (§3) U251 cells were plated in 6 well format culture dishes overnight at 37° C. with 5% CO2 and then treated with increasing concentrations of test compounds for 48 h at 37° C. with 5% CO2. Quantification of total Akt1, EGFR, and Hsp70 in cell lysates was accomplished using ELISA kits (R&D Systems) according to the manufacturer's recommendations and utilizing a Synergy HT micro-titer plate reader (Biotek). Cell lysates were prepared as recommended in the kit procedure. Protein concentrations of lysates clarified using centrifugation were determined using a Bradford assay (Thermo Scientific), and the values were used to normalize the biomarker values.

[6] = tested on: Hsp70 levels in U251MG cells; test: Biomarker quantitation by ELISA, Hsp70; assay type: cell-based; settings: 15.6 uM, 48 h
Protocol: as §3

U251MG cells = test: Cell viability assay, cellular dehydrogenase activity (CCK-8); assay type: cell-based; settings: Homo sapiens, U-251; 72 h at 37° C.; FIG. 1A
Protocol: U251MG cells were maintained at 37° C. and 5% CO2 in RPMI media supplemented with glutamax and containing 10% heat-inactivated fetal bovine serum and 1% penicillin/streptomycin (Life Sciences).
A cell counting kit (CCK-8 assay kit, Dojindo) and an ADP-Glo assay (Life Technologies) were used to quantitate the effects of test compounds on cell viability. U251MG cells were seeded into 96 well tissue culture plates and incubated for 16 h at 37° C. with 5% CO2. Increasing concentrations of test compounds were added to the wells from DMSO-containing stock solutions to a final DMSO concentration of 0.05% and incubated for 72 hr at 37° C. CCK-8 kit reagent or ADP-GLO reagent were then added to the wells and absorbance was measured at 450 nm (for the CCK assay) using a Synergy HT micro-titer plate reader (Biotek) or luminescence was measured (for the ADP-GLO assay) using a POLARstar Omega micro-titer plate reader (BMG).

| Structure (SMILES) | Effect on patient derived GBM tumor cell proliferation [1] | Effect on EGFR and Akt1 levels, GBM PDX cell lines [2] | Effect on TMRE fluorescence in HEI193 cells (HEI193 cells) | Effect on TMRE fluorescence of MDA-MB-231 cells (MDA-MB-231 cells) | EC50 (GBM10) [nM] | U251MG caspase 3/7 activity increase ([3]; 50 uM) [fold] | Lowest concentration at which an increase in caspase activity was observed ([3]; U251MG) [µM] | Membrane potential of isolated mitochondria reduced to ([4]; 4 uM) [%] | Membrane potential of isolated mitochondria reduced to ([4]; 20 uM) [%] | Reduction of EGFR levels [5] [%] | Increase of Hsp70 levels [6] [fold] | IC50 (U251MG cells) [nM] |
| --- | --- | --- | --- | --- | --- | --- | --- | --- | --- | --- | --- | --- |
| COc1c(C)cnc(CN(CC2(c3ccc(F)cc3)CCOCC2)c2cc(Cl)nc(N)n2)c1C [Compound A, 6-chloro-4-N-{[4-(4-fluorophenyl)oxan-4-yl]methyl}-4-N-[(4-methoxy-3,5-dimethylpyridin-2-yl)methyl]pyrimidine-2,4-diamine] | inhibit | suppression of Hsp90 client proteins | dose-dependent decrease | dose-dependent decrease | 280 | – | – | – | – | – | – | – |
| COc1c(C)cnc(CN(CCc2ccccn2)c2cc(Cl)nc(N)n2)c1C [Compound 1, 6-chloro-4-N-[(4-methoxy-3,5-dimethylpyridin-2yl)methyl]-4-N-[2-(pyridine-2-yl)ethyl]pyrimidine-2,4-amine] | – | – | – | – | – | 6.8 | 1.6 | 61 | 52 | 71 | 6 | 1720 |
